Tests used:
Format in all cases: cell-based, human
[1] = tested on: pNECs monolayers from CRSwNP patients; experiment: Wound healing assay (epithelial repair rate) of injured pNECs monolayers from CRSwNP patients; conditions: 6 h
Method: diagnosis was performed according to the 2004 AAO-HNS guidelines^31, and patients underwent ESS following failure of medical treatment. Control patients underwent ESS for cerebral spinal fluid leak or non-secreting pituitary adenomas. Exclusion criteria for both groups comprised immune deficiencies, neoplasia, ciliary dyskinesia, cystic fibrosis, and systemic immunosuppression. Tissues obtained during surgery at the level of anterior ethmoidal bulla (control) or the polyp itself ([…]) were immediately collected for subsequent cell isolation and culture. After recovery, pNECs were isolated following a standardized procedure^32-35. […] After 18 h, Fetal Bovine Serum was added to the solution to neutralize the protease-DNase activity, and pNECs were gently scraped off the remaining tissue. […] Images were registered using AxioVisionTM 4.8 software (Carl Zeiss, Jena, Germany) and then analyzed with Image J software (NIH, Bethesda, Md., USA) to measure areas at t=0 h and t=6 h of wound healing and then to calculate the repair rates (expressed in μm^2/h).

[2] = tested on: pNECs from CRSwNP patients; experiment: Analysis of lamellipodial dynamics by kymograph, pNECs from CRSwNP patients; conditions: SA 0.5% + Y-27632 5 μM, 0-2 h and 2-4 h, CRSwNP pNECs (FIG. 6)
Method: Brightfield time-lapse series were made on pNECs from patients with CRSwNP and control subjects plated in 2-well silicone culture inserts (Ibidi #80209, Fitchburg, USA) using an inverted Axio ObserverZ1 microscope equipped with a CoolSNAP™ EZ CCD camera and a 10×/0.3 NA air objective lens, and then analyzed by AxioVision™ software.
Immediately prior to image acquisition, cells were treated with LB (control condition for SA) or LB+water (control condition for SA+Y-27632). Cells were then positioned into the incubation chamber (37° C., 5% CO2) and images were captured every minute for 2 h to observe cell protrusions and retractions. Then, cells were treated with either SA exoproducts (concentration of 0.5% (v/v)) or a mix of SA (concentration of 0.5% v/v) and Y-27632 (5 μM), with the recording pursued during the following 4 h.
A one pixel-wide line crossing the cell membrane perpendicularly to the lamellipodia was drawn, and this region was extracted from each image of the time-lapse series, as previously described by Choi et al.^38. […] Data derived from these segmented lines were generated using “read velocity tsp macro” of ImageJ and used to calculate the length and velocity of each protrusion. At least a total of 40-110 individual protrusion events per condition and at least 14 different cells were analyzed in 3 independent time-lapse series.

[3] = tested on: nasal epithelia from CRSwNP patients; experiment: Immunofluorescence of cytoskeleton and lamellipodial cell quantification at the wound edge, nasal epithelia from CRSwNP patients; conditions: 4 h
Method: pNECs were grown to confluency on coverslips (precision cover glasses thickness No. 1.5H, Marienfeld, Lauda-Konigshofen, Germany) coated with Purecol™. After injury, (3 mechanical wounds/coverslip), cell monolayers were washed and then treated with either: 1) LB (concentration of 0.5% (v/v)): negative control, 2) SA exoproducts (concentration of 0.5% (v/v) SA filtrate) and 3) SA exoproducts (concentration of 0.5% (v/v) SA filtrate) and Y-27632 (5 μM). After 4 h of repair, cell monolayers were fixed with 4% paraformaldehyde in PBS for 5 min, permeabilized with 0.1% Triton™ X-100 in PBS for 10 min. After blocking (in 1% BSA in PBS for at least 1h at 4° C.), fixed cells were incubated with the primary anti-β-tubulin antibody (1:1000 in PBS+BSA1%, Millipore, Etobicoke, Canada) for 1 h at room temperature, and then with Alexa Fluor®-488 conjugated goat anti-mouse antibody secondary antibody (1:2000 in PBS+BSA1%,1 h, room temperature Thermo Fischer Scientific, Waltham, USA). F-actin was stained with Phalloidin-Alexa Fluor® 594 (1 unit, Thermo Fischer Scientific) (in PBS+BSA1%, for 1 h at room temperature) and nuclei with DAPI (1:1000 in PBS+BSA1%, for 5 min). Coverslips were mounted with ProLong® Gold Antifade Reagent (Molecular Probes, Eugene, USA) on SuperFrost™ glass slides (Thermo Fisher Scientific). Images were acquired with an inverted confocal microscope (TCS SP5, Leica Microsystems, Wetzlar, Germany) using an oil-immersion objective 63×/1.4. On immunofluorescence images, cells at the wound edge were classified according to the categories “with” or “without” lamellipodia as well as “ambiguous morphology” (see FIG. 10)^39. Percentages of cells in each category were then calculated.

[4] = tested on: pNEC; experiment: Pilot study of Y-27632 dose on epithelial repair in pNEC
Excerpt: pNECs were injured mechanically (3 wounds/well, 3 wells/condition), using a well-established, highly reproducible technique^32,34,37. After wounding, the cultures were washed to remove detached cells, and then randomly treated in either of the following conditions (performed in triplicate): 1) negative control: 0.5% (v/v) of LB, 2) exposure to SA exoproducts, (at both concentrations of 0.25% and 0.5% (v/v) SA filtrate), and 3) exposure to SA exoproducts (both concentrations of 0.25% and 0.5% (v/v) SA filtrate) and the ROCK inhibitor Y-27632 dihydrochloride (5 μM, Sigma-Aldrich®).
A mark on wells allowed us to capture images of the wounds at exactly the same place at t=0 h and t=6 h using an inverted microscope with a 4× objective (Nikon Eclipse™ TE 2000). Images were registered using AxioVision™ 4.8 software (Carl Zeiss, Jena, Germany) and then analyzed with Image J software (NIH, Bethesda, Md., USA) to measure areas at t=0 h and t=6 h of wound healing and then to calculate the repair rates (expressed in μm^2/h).
The effect of a potent Rho kinase (ROCK) inhibitor, Y-27632, on epithelial repair in pNECs exposed to SA exoproducts was assessed. It was first determined, in a pilot study, that 5 μM was the optimal dose for Y-27632 in pNEC.

[5] = CRSwNP, SA 0.5% + vehicle (SA) or SA 0.5% + Y-27632 5 μM (SA+Y) (FIG. 7B)

Q: `C[C@@H](N)[C@H]1CC[C@H](C(=O)Nc2ccncc2)CC1` [Y-27632] was tested. Which “increase of repair rates compared to corresponding SA condition in the absence of Y-27632” value ([1]; Y-27632 5 μM co-cultured with SA 0.25%) did it give?
A: 1.86 fold

Q: What about the “increase of repair rates compared to corresponding SA condition in the absence of Y-27632” value ([1]; Y-27632 5 μM with SA 0.5%) of the same molecule?
A: 2.22 fold

Q: What about the “length and velocity of protrusions after SA+Y vs. LB” value [2] of the same molecule?
A: non-significant

Q: And the cells with lamellipodia [3, 5]?
A: 65%

Q: And the cells without lamellipodia [3, 5]?
A: 8%

Q: What about the “lamellipodial extensions at the leading edge (cytoskeleton organization)” value ([3]; SA 0.5% + Y-27632 5 μM, CRSwNP (FIG. 7A)) of the same molecule?
A: partially restored lamellipodial extensions

Q: What about the “increase in epithelial repair rate” value ([4]; 5 μM, in LB condition) of the same molecule?
A: 23%

Q: And the “effect of increasing concentrations on pNECs” value ([4]; concentrations above 5 μM)?
A: altered migration and induced pNECs apoptosis

Q: And the “optimal dose in pNEC” value ([4]; pilot study)?
A: 5 μM

Reference: patent US20200101056A1, “USE OF ROCK INHIBITORS FOR PROMOTING SINONASAL EPITHELIAL CELL REPAIR” (priority 2018, published 2020)
